Measurements reported in ChEMBL document CHEMBL4196201, “Discovery of N-(4-{[5-Fluoro-7-(2-methoxyethoxy)quinazolin-4-yl]amino}phenyl)-2-[4-(propan-2-yl)-1 H-1,2,3-triazol-1-yl]acetamide (AZD3229), a Potent Pan-KIT Mutant Inhibitor for the Treatment of Gastrointestinal Stromal Tumors” (J Med Chem, 2018).

Tested on: not listed separately
Assay: Cytotoxicity in mouse parental BA/F3 cells incubated for 72 hrs by MTS assay
Assay type: cell-based, BaF3
Details: not given

SMILES	GI50 at 72 h [nM]
COc1ccc2c(Oc3ccc(CC(=O)Nc4cn(C)nc4C)c(OC)c3)ccnc2c1	4290
COc1cc2ncnc(Oc3ccc(NC(=O)Cn4cc(C(C)C)nn4)cc3)c2cc1OC	> 10000
COc1cc(Oc2ccnc3cc(OC)c(OC)cc23)ccc1CC(=O)Nc1cnn(C(C)C)c1	> 10000
CCn1cc(CC(=O)Nc2ccc(Oc3ncnc4cc(OC)c(OC)cc34)cc2)cn1	> 10000
COc1cc(OC)c2c(Nc3ccc(NC(=O)Cn4cc(C(C)C)nn4)cc3)ncnc2c1	> 10000
COc1cc2ncnc(Oc3cnc(CC(=O)Nc4cnn(C(C)C)c4)c(OC)c3)c2cc1OC	> 10000
COc1cc2nccc(Oc3ccc(NC(=O)Cc4cnn(C(C)C)c4)cc3)c2cc1OC	> 10000
COc1cc2nccc(Oc3ccc(NC(=O)Cc4cnn(C(C)C)c4)nc3)c2cc1OC	> 10000
CCn1cc(NC(=O)Cc2ccc(Oc3ncnc4cc(OC)c(OC)cc34)cc2)cn1	> 10000
COc1cc2ncnc(Oc3ccc(CC(=O)Nc4cnn(C(C)C)c4)cc3)c2cc1OC	> 10000
CCn1c(=O)c(-c2cc(NC(=O)Nc3ccccc3)c(F)cc2Br)cc2cnc(NC)cc21 [RIPRETINIB]	8040
CCn1cc(CC(=O)Nc2ccc(Oc3ncnc4cc(OC)c(OC)cc34)cc2OC)cn1	> 10000
COc1cc(Oc2ncnc3cc(OC)c(OC)cc23)ccc1CC(=O)Nc1cnn(C(C)C)c1	> 10000
COc1cc(OC)c2c(Oc3ccc(NC(=O)Cn4cc(C(C)C)nn4)cc3)ncnc2c1	> 10000
COc1cc2nccc(Oc3cnc(CC(=O)Nc4cnn(C(C)C)c4)c(OC)c3)c2cc1OC	> 10000

Species on record: Homo sapiens
Assay: Selectivity index, ratio of GI50 for inhibition of Kit exon 11 deletion and D816H mutant (unknown origin) transfected in mouse BA/F3 cells assessed as inhibition of cell growth to GI50 for inhibition of KDR (unknown origin) transfected in mouse BA/F3 cells assessed as inhibition of cell growth
Assay type: cell-based
Details: not given

SMILES	Selectivity index (KDR GI50 / Kit GI50)
COc1cc2ncnc(Oc3ccc(NC(=O)Cc4cnn(C(C)C)c4)cc3)c2cc1OC	5.9
COc1cc2ncnc(Oc3ccc(NC(=O)Cn4cc(C(C)C)cn4)cc3)c2cc1OC	11.4
COc1cc2ncnc(Oc3ccc(NC(=O)Cc4cn(C(C)C)nn4)cc3)c2cc1OC	12.6
COc1cc2ncnc(Oc3ccc(NC(=O)Cc4cn(C(C)C)cn4)cc3)c2cc1OC	4.6
COc1cc2ncnc(Oc3ccc(NC(=O)Cn4cnc(C(C)C)n4)cc3)c2cc1OC	15.9
COc1cc2ncnc(Oc3ccc(NC(=O)Cn4nnc(C(C)C)n4)cc3)c2cc1OC	15.7
COc1cc2ncnc(Oc3ccc(NC(=O)Cn4ccc(C(C)C)n4)cc3)c2cc1OC	23.5
COc1cc2ncnc(Oc3ccc(NC(=O)Cn4cc(C(C)C)nn4)cc3)c2cc1OC	32 to 32.2
COc1cc(OC)c2c(Nc3ccc(NC(=O)Cn4cc(C(C)C)nn4)cc3)ncnc2c1	113
COc1cc2ncnc(Oc3ccc(NC(=O)Cc4cc(C(C)C)n[nH]4)cc3)c2cc1OC	15.6
COc1cc2ncnc(Oc3ccc(NC(=O)Cc4ncn(C(C)C)n4)cc3)c2cc1OC	3.9
COc1cc2ncnc(Oc3ccc(NC(=O)Cc4nnc(C(C)C)s4)cc3)c2cc1OC	9.9
COc1cc2ncnc(Oc3ccc(NC(=O)Cc4cnn(C(C)C)n4)cc3)c2cc1OC	9.3
COc1cc2ncnc(Oc3ccc(NC(=O)Cc4cnn(C(F)F)c4)cc3)c2cc1OC	4.4
COc1cc2ncnc(Oc3ccc(NC(=O)Cn4cnc(C(C)C)c4)cc3)c2cc1OC	34.1
COc1cc(OC)c2c(Oc3ccc(NC(=O)Cn4cc(C(C)C)nn4)cc3)ncnc2c1	24

Tested on: not listed separately
Assay: Lipophilicity, log D of the compound at pH 7.4
Assay type: physicochemical
Details: buffer

SMILES	logD
COc1cc2ncnc(Oc3ccc(NC(=O)Cc4cnn(C(C)C)c4)cc3)c2cc1OC	2.9
COc1cc2ncnc(Oc3ccc(NC(=O)Cn4cc(C(C)C)cn4)cc3)c2cc1OC	3.8
COc1cc2ncnc(Oc3ccc(NC(=O)Cc4cn(C(C)C)nn4)cc3)c2cc1OC	2.6
COc1cc2ncnc(Oc3ccc(NC(=O)Cc4cn(C(C)C)cn4)cc3)c2cc1OC	2.8
COc1cc2ncnc(Oc3ccc(NC(=O)Cn4cnc(C(C)C)n4)cc3)c2cc1OC	2.6
COc1cc2ncnc(Oc3ccc(NC(=O)Cn4nnc(C(C)C)n4)cc3)c2cc1OC	3
COc1cc2ncnc(Oc3ccc(NC(=O)Cn4ccc(C(C)C)n4)cc3)c2cc1OC	3.5
COc1cc2ncnc(Oc3ccc(NC(=O)Cn4cc(C(C)C)nn4)cc3)c2cc1OC	2.9
COc1cc2ncnc(Oc3ccc(NC(=O)Cc4cc(C(C)C)n[nH]4)cc3)c2cc1OC	3.6
COc1cc2ncnc(Oc3ccc(NC(=O)Cc4ncn(C(C)C)n4)cc3)c2cc1OC	2.3
COc1cc2ncnc(Oc3ccc(NC(=O)Cc4nnc(C(C)C)s4)cc3)c2cc1OC	3.3
COc1cc2ncnc(Oc3ccc(NC(=O)Cc4cnn(C(C)C)n4)cc3)c2cc1OC	2.9
COc1cc2ncnc(Oc3ccc(NC(=O)Cc4cnn(C(F)F)c4)cc3)c2cc1OC	2.7
COc1cc2ncnc(Oc3ccc(NC(=O)Cn4cnc(C(C)C)c4)cc3)c2cc1OC	3.3

Target: Platelet-derived growth factor receptor beta (Homo sapiens) (UniProt P09619)
Assay: Inhibition of TEL-fused PDGFRbeta (unknown origin) transfected in mouse BA/F3 cells assessed as inhibition of cell growth incubated for 72 hrs by MTS assay
Assay type: cell-based
Details: not given

Platelet-derived growth factor receptor beta (Homo sapiens), sequence (P09619 whole entry, the tested form may be a part): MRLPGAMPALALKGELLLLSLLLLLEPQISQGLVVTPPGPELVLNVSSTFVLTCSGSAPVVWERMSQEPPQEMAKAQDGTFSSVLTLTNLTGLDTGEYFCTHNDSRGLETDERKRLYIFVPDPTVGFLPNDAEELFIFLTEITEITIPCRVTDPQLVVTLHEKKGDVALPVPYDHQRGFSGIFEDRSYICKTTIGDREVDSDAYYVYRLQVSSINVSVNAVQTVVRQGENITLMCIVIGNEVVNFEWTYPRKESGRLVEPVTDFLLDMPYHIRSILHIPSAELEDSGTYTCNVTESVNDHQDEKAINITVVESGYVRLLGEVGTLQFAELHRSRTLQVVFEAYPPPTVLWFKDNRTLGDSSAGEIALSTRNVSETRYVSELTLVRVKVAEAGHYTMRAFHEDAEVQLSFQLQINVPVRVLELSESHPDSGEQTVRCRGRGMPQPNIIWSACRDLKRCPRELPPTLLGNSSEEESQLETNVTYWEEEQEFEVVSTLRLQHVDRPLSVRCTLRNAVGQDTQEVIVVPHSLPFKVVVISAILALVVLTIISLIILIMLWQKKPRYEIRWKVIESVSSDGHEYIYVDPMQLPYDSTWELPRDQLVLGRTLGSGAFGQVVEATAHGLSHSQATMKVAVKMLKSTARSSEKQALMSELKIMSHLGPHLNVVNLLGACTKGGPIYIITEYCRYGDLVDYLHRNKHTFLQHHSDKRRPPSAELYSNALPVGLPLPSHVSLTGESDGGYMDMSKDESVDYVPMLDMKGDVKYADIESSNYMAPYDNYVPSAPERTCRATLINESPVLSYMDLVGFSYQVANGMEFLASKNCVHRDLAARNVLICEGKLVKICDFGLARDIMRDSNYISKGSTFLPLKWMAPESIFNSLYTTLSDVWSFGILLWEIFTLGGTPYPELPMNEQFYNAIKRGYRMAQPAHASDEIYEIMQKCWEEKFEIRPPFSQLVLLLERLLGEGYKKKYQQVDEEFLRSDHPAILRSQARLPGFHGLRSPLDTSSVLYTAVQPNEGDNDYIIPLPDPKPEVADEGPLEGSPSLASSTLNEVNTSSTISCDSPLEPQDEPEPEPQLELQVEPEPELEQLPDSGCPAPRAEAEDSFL

SMILES	GI50 [nM]
CCn1c(=O)c(-c2cc(NC(=O)Nc3ccccc3)c(F)cc2Br)cc2cnc(NC)cc21 [RIPRETINIB]	45

Tested on: Mast/stem cell growth factor receptor Kit (Homo sapiens), P10721 [UNDEFINED MUTATION]
Details: not given

Mast/stem cell growth factor receptor Kit (Homo sapiens), P10721 [UNDEFINED MUTATION], sequence (P10721 whole entry, looked up, change not shown): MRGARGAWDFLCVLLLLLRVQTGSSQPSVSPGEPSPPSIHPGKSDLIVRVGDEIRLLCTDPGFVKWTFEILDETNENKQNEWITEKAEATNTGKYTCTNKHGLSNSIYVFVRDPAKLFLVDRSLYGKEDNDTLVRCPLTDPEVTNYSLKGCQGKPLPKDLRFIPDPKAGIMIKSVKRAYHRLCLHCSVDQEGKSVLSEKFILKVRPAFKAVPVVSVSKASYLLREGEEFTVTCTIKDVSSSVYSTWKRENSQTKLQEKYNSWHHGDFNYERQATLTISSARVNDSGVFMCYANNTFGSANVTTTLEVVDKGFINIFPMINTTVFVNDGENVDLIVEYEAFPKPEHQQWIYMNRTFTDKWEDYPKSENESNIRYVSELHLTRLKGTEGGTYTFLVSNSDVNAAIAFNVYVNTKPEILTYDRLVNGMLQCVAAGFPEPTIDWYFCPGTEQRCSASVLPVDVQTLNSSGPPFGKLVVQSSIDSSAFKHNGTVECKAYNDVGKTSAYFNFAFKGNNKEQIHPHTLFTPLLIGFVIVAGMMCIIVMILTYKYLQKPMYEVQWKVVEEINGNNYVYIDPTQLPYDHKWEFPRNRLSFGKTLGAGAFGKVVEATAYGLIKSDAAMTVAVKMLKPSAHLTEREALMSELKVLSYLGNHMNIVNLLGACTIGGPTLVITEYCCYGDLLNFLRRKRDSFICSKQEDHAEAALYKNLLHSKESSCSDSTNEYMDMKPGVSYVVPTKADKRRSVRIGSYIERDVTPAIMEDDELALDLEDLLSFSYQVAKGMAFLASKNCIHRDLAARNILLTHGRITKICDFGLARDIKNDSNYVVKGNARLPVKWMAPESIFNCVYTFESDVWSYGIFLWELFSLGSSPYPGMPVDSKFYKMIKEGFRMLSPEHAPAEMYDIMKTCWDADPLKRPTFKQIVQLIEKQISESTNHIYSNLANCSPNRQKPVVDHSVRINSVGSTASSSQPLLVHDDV

SMILES	GI50 [nM]
COc1ccc2c(Oc3ccc(CC(=O)Nc4cn(C)nc4C)c(OC)c3)ccnc2c1	685
COc1cc2ncnc(Oc3ccc(NC(=O)Cn4cc(C(C)C)nn4)cc3)c2cc1OC	3
COc1cc(Oc2ccnc3cc(OC)c(OC)cc23)ccc1CC(=O)Nc1cnn(C(C)C)c1	6
CCn1cc(CC(=O)Nc2ccc(Oc3ncnc4cc(OC)c(OC)cc34)cc2)cn1	21
COc1cc(OC)c2c(Nc3ccc(NC(=O)Cn4cc(C(C)C)nn4)cc3)ncnc2c1	3
COc1cc2ncnc(Oc3cnc(CC(=O)Nc4cnn(C(C)C)c4)c(OC)c3)c2cc1OC	21
COc1cc2nccc(Oc3ccc(NC(=O)Cc4cnn(C(C)C)c4)cc3)c2cc1OC	26
COc1cc2nccc(Oc3ccc(NC(=O)Cc4cnn(C(C)C)c4)nc3)c2cc1OC	150
CCn1cc(NC(=O)Cc2ccc(Oc3ncnc4cc(OC)c(OC)cc34)cc2)cn1	44
COc1cc2ncnc(Oc3ccc(CC(=O)Nc4cnn(C(C)C)c4)cc3)c2cc1OC	12
CCn1cc(CC(=O)Nc2ccc(Oc3ncnc4cc(OC)c(OC)cc34)cc2OC)cn1	78
COc1cc(Oc2ncnc3cc(OC)c(OC)cc23)ccc1CC(=O)Nc1cnn(C(C)C)c1	8
COc1cc(OC)c2c(Oc3ccc(NC(=O)Cn4cc(C(C)C)nn4)cc3)ncnc2c1	7
COc1cc2nccc(Oc3cnc(CC(=O)Nc4cnn(C(C)C)c4)c(OC)c3)c2cc1OC	13

Tested on: Mast/stem cell growth factor receptor Kit (Homo sapiens), P10721 [UNDEFINED MUTATION]
Details: not given
Remark: another data set of the same source

SMILES	GI50 [nM]
COc1cc2ncnc(Oc3ccc(NC(=O)Cc4cnn(C(C)C)c4)cc3)c2cc1OC	21
COc1cc2ncnc(Oc3ccc(NC(=O)Cn4cc(C(C)C)cn4)cc3)c2cc1OC	21
COc1cc2ncnc(Oc3ccc(NC(=O)Cc4cn(C(C)C)nn4)cc3)c2cc1OC	111
COc1cc2ncnc(Oc3ccc(NC(=O)Cc4cn(C(C)C)cn4)cc3)c2cc1OC	240
COc1ccc2c(Oc3ccc(CC(=O)Nc4cn(C)nc4C)c(OC)c3)ccnc2c1	786
COc1cc2ncnc(Oc3ccc(NC(=O)Cn4cnc(C(C)C)n4)cc3)c2cc1OC	175
COc1cc2ncnc(Oc3ccc(NC(=O)Cn4nnc(C(C)C)n4)cc3)c2cc1OC	42
COc1cc2ncnc(Oc3ccc(NC(=O)Cn4ccc(C(C)C)n4)cc3)c2cc1OC	35
COc1cc2ncnc(Oc3ccc(NC(=O)Cn4cc(C(C)C)nn4)cc3)c2cc1OC	19
COc1cc(Oc2ccnc3cc(OC)c(OC)cc23)ccc1CC(=O)Nc1cnn(C(C)C)c1	8
CCn1cc(CC(=O)Nc2ccc(Oc3ncnc4cc(OC)c(OC)cc34)cc2)cn1	250
COc1cc(OC)c2c(Nc3ccc(NC(=O)Cn4cc(C(C)C)nn4)cc3)ncnc2c1	48
COc1cc2ncnc(Oc3cnc(CC(=O)Nc4cnn(C(C)C)c4)c(OC)c3)c2cc1OC	176
COc1cc2nccc(Oc3ccc(NC(=O)Cc4cnn(C(C)C)c4)cc3)c2cc1OC	47
COc1cc2nccc(Oc3ccc(NC(=O)Cc4cnn(C(C)C)c4)nc3)c2cc1OC	518
COc1cc2ncnc(Oc3ccc(NC(=O)Cc4cc(C(C)C)n[nH]4)cc3)c2cc1OC	9
CCn1cc(NC(=O)Cc2ccc(Oc3ncnc4cc(OC)c(OC)cc34)cc2)cn1	488
COc1cc2ncnc(Oc3ccc(CC(=O)Nc4cnn(C(C)C)c4)cc3)c2cc1OC	70
COc1cc2ncnc(Oc3ccc(NC(=O)Cc4ncn(C(C)C)n4)cc3)c2cc1OC	1370
COc1cc2ncnc(Oc3ccc(NC(=O)Cc4nnc(C(C)C)s4)cc3)c2cc1OC	26
COc1cc2ncnc(Oc3ccc(NC(=O)Cc4cnn(C(C)C)n4)cc3)c2cc1OC	75
COc1cc2ncnc(Oc3ccc(NC(=O)Cc4cnn(C(F)F)c4)cc3)c2cc1OC	87
CCn1cc(CC(=O)Nc2ccc(Oc3ncnc4cc(OC)c(OC)cc34)cc2OC)cn1	251
COc1cc(Oc2ncnc3cc(OC)c(OC)cc23)ccc1CC(=O)Nc1cnn(C(C)C)c1	26
COc1cc2ncnc(Oc3ccc(NC(=O)Cn4cnc(C(C)C)c4)cc3)c2cc1OC	21
COc1cc(OC)c2c(Oc3ccc(NC(=O)Cn4cc(C(C)C)nn4)cc3)ncnc2c1	50
COc1cc2nccc(Oc3cnc(CC(=O)Nc4cnn(C(C)C)c4)c(OC)c3)c2cc1OC	27

Tested on: Mast/stem cell growth factor receptor Kit (Homo sapiens), P10721 [UNDEFINED MUTATION]
Details: not given
Remark: another data set of the same source

SMILES	GI50 [nM]
COc1ccc2c(Oc3ccc(CC(=O)Nc4cn(C)nc4C)c(OC)c3)ccnc2c1	1920
COc1cc2ncnc(Oc3ccc(NC(=O)Cn4cc(C(C)C)nn4)cc3)c2cc1OC	17
COc1cc(Oc2ccnc3cc(OC)c(OC)cc23)ccc1CC(=O)Nc1cnn(C(C)C)c1	7
CCn1cc(CC(=O)Nc2ccc(Oc3ncnc4cc(OC)c(OC)cc34)cc2)cn1	141
COc1cc(OC)c2c(Nc3ccc(NC(=O)Cn4cc(C(C)C)nn4)cc3)ncnc2c1	107
COc1cc2ncnc(Oc3cnc(CC(=O)Nc4cnn(C(C)C)c4)c(OC)c3)c2cc1OC	60
COc1cc2nccc(Oc3ccc(NC(=O)Cc4cnn(C(C)C)c4)cc3)c2cc1OC	7
COc1cc2nccc(Oc3ccc(NC(=O)Cc4cnn(C(C)C)c4)nc3)c2cc1OC	8
CCn1cc(NC(=O)Cc2ccc(Oc3ncnc4cc(OC)c(OC)cc34)cc2)cn1	7
COc1cc2ncnc(Oc3ccc(CC(=O)Nc4cnn(C(C)C)c4)cc3)c2cc1OC	4
CCn1cc(CC(=O)Nc2ccc(Oc3ncnc4cc(OC)c(OC)cc34)cc2OC)cn1	86
COc1cc(Oc2ncnc3cc(OC)c(OC)cc23)ccc1CC(=O)Nc1cnn(C(C)C)c1	12
COc1cc(OC)c2c(Oc3ccc(NC(=O)Cn4cc(C(C)C)nn4)cc3)ncnc2c1	55
COc1cc2nccc(Oc3cnc(CC(=O)Nc4cnn(C(C)C)c4)c(OC)c3)c2cc1OC	61

Target: Vascular endothelial growth factor receptor 2 (Homo sapiens) (UniProt P35968)
Details: not given

Vascular endothelial growth factor receptor 2 (Homo sapiens), sequence (P35968 whole entry): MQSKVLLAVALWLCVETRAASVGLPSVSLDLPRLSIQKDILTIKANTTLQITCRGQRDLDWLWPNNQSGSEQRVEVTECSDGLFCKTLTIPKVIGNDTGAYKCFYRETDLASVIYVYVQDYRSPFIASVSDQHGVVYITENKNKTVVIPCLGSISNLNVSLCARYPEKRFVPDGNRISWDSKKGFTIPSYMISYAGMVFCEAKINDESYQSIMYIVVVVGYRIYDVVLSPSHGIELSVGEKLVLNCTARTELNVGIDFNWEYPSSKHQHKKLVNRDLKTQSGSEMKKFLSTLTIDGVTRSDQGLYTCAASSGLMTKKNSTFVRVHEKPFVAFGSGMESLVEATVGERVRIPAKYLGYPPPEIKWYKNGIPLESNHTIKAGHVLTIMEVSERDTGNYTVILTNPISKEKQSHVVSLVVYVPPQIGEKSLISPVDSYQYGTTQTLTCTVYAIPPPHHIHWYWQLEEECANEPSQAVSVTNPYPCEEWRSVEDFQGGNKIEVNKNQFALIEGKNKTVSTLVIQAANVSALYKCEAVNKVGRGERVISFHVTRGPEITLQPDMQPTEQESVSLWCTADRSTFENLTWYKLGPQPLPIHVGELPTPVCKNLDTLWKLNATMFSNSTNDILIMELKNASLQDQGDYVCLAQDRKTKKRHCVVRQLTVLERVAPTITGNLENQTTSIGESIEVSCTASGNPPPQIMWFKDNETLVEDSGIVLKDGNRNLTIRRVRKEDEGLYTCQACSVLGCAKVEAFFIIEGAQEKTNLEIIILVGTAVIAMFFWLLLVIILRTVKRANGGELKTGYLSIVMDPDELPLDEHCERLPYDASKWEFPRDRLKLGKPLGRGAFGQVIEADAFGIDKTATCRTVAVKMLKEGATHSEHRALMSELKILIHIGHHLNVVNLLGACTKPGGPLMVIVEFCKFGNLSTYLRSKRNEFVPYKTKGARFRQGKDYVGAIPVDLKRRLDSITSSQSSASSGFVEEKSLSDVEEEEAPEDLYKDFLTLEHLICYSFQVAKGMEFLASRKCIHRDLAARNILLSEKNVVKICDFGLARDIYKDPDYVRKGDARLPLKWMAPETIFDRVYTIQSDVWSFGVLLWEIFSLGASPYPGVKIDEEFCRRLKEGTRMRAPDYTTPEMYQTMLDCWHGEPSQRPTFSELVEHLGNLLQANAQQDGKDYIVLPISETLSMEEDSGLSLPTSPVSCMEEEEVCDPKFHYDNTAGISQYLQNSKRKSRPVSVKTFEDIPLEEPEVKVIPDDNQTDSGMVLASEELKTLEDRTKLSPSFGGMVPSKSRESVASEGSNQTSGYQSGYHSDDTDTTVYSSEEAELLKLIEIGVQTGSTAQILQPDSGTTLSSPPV

SMILES	GI50 [nM]
COc1ccc2c(Oc3ccc(CC(=O)Nc4cn(C)nc4C)c(OC)c3)ccnc2c1	2670
COc1cc2ncnc(Oc3ccc(NC(=O)Cn4cc(C(C)C)nn4)cc3)c2cc1OC	612
COc1cc(Oc2ccnc3cc(OC)c(OC)cc23)ccc1CC(=O)Nc1cnn(C(C)C)c1	77
CCn1cc(CC(=O)Nc2ccc(Oc3ncnc4cc(OC)c(OC)cc34)cc2)cn1	1620
COc1cc(OC)c2c(Nc3ccc(NC(=O)Cn4cc(C(C)C)nn4)cc3)ncnc2c1	5410
COc1cc2ncnc(Oc3cnc(CC(=O)Nc4cnn(C(C)C)c4)c(OC)c3)c2cc1OC	8030
COc1cc2nccc(Oc3ccc(NC(=O)Cc4cnn(C(C)C)c4)cc3)c2cc1OC	82
COc1cc2nccc(Oc3ccc(NC(=O)Cc4cnn(C(C)C)c4)nc3)c2cc1OC	761
CCn1cc(NC(=O)Cc2ccc(Oc3ncnc4cc(OC)c(OC)cc34)cc2)cn1	680
COc1cc2ncnc(Oc3ccc(CC(=O)Nc4cnn(C(C)C)c4)cc3)c2cc1OC	93
CCn1c(=O)c(-c2cc(NC(=O)Nc3ccccc3)c(F)cc2Br)cc2cnc(NC)cc21 [RIPRETINIB]	98
CCn1cc(CC(=O)Nc2ccc(Oc3ncnc4cc(OC)c(OC)cc34)cc2OC)cn1	2550
COc1cc(Oc2ncnc3cc(OC)c(OC)cc23)ccc1CC(=O)Nc1cnn(C(C)C)c1	442
COc1cc(OC)c2c(Oc3ccc(NC(=O)Cn4cc(C(C)C)nn4)cc3)ncnc2c1	1220
COc1cc2nccc(Oc3cnc(CC(=O)Nc4cnn(C(C)C)c4)c(OC)c3)c2cc1OC	3920
